Test results: patent US8192962B2, “Processes for detecting toxic substances” (Daikin Industries, Ltd., priority 2001, dated 2012)

Test system: Metabolism protein genes
Test: DNA chip mRNA expression in yeast, metabolism protein genes (Table 7)
Assay type: cell-based, Saccharomyces cerevisiae S288C
Protocol: Yeast (Saccharomyces cerevisiae S288C (α SUC2mal mel gap2 CUP1)) were incubated at 25° C. on YPD medium (yeast extract 1%, polypepton 2%, glucose 2%). One of toxic chemical substances was added to the cells at logarithmic growth phase, and the cells were further incubated for two hours. Cells were cultured without any chemical substance in the same condition, and were used as control. Concentrations of the chemical substances were defined to inhibit the growth of the yeast but not lead to death.
After completion of the incubation, the culture was centrifuged to collect the cells. To the cells, sodium acetate buffer (50 mM sodium acetate, 10 mM EDTA, 1% SDS) was added, and the mixture was shaken at 65° C. for five minutes, followed by returning to room temperature, and obtaining the supernatant, of which the procedures were repeated two times. To the supernatant, ½ amount of a solution of phenol/chloroform was added, and the mixture was centrifuged to give a supernatant, which was added with an equal amount of chloroform, and the mixture was centrifuged to give a supernatant. To the supernatant, an equal amount of isopropanol containing 0.3 M sodium acetate was added, and the mixture was allowed to stand at room temperature for 30 minutes, after which the mixture was centrifuged to give a sediment of the whole RNAs. Seventy % ethanol was added to the sediment, and the mixture was again centrifuged to give a sediment, which was then dried and dissolved in water. mRNA was isolated from the whole RNAs as followings. In view of the fact that a poly A chain is attached to the 3′ terminus of mRNA, a polynucleotide having a poly T structure which was immobilized on the surface of latex beads was used to trap the mRNA, and then the mRNA was washed and eluted with spine column (Oligotex-dT30<Super>mRNA Purification Kit, Takara). Reverse transcription of the mRNA was conducted with a reverse transcriptase (Super Script II Reverse Transcriptase; catalogue No. 18064-014, GibcoBRL) using fluorescence-labeled nucleotides to give cDNAs that were introduced with Cy3-dUTP or Cy5-dUTP during the reverse transcription.
The labeled cDNAs were dissolved in TE buffer (10mM Tris-HCl/1 mM EDTA, pH8.0), and the solution was dropped on the DNA chip containing the whole genes of yeast (DNA Chip Research Inc. Japan) so that the cDNAs were hybridized on the DNA chip at 65° C. for over 12 hours. The fluoresces intensity of the DNA chip was read with a scanner, and the ratio relative to the fluorescence intensity resulting from the absence of chemical substance was estimated as the following, which is shown in Tables 1 to 9: […]

## Cl[C@H]1[C@H](Cl)[C@@H](Cl)[C@@H](Cl)[C@H](Cl)[C@H]1Cl [(7), γ-hexachlorocyclohexane]
Yeast gene YAL012W
  The level of expressed mRNA in the presence of chemical substance/The level of expressed mRNA in the absence of chemical substance: 0.6
Yeast gene YAL038W
  The level of expressed mRNA in the presence of chemical substance/The level of expressed mRNA in the absence of chemical substance: 0.9
Yeast gene YBR003W
  level of expressed mRNA in the presence/in the absence of chemical substance: 1.1
Yeast gene YBR011C
  level of expressed mRNA in the presence/in the absence of chemical substance: 1.1
Yeast gene YBR020W
  level of expressed mRNA in the presence/in the absence of chemical substance: 0.7
Yeast gene YBR023C
  The level of expressed mRNA in the presence of chemical substance/The level of expressed mRNA in the absence of chemical substance: 0.7
Yeast gene YBR029C
  The level of expressed mRNA in the presence of chemical substance/The level of expressed mRNA in the absence of chemical substance: 0.4
Yeast gene YBR183W
  The level of expressed mRNA in the presence of chemical substance/The level of expressed mRNA in the absence of chemical substance: 1.7
Yeast gene YBR222C
  The level of expressed mRNA in the presence of chemical substance/The level of expressed mRNA in the absence of chemical substance: 1.0
Yeast gene YBR256C
  The level of expressed mRNA in the presence of chemical substance/The level of expressed mRNA in the absence of chemical substance: 2.1
Yeast gene YCL009C
  The level of expressed mRNA in the presence of chemical substance/The level of expressed mRNA in the absence of chemical substance: 1.3
Yeast gene YCL064C
  The level of expressed mRNA in the presence of chemical substance/The level of expressed mRNA in the absence of chemical substance: 13.4
Yeast gene YCR010C
  level of expressed mRNA in the presence/in the absence of chemical substance: 1.3
Yeast gene YCR034W
  level of expressed mRNA in the presence/in the absence of chemical substance: 0.3
Yeast gene YCR048W
  The level of expressed mRNA in the presence of chemical substance/The level of expressed mRNA in the absence of chemical substance: 0.9
Yeast gene YCR098C
  The level of expressed mRNA in the presence of chemical substance/The level of expressed mRNA in the absence of chemical substance: 1.2
Yeast gene YDR019C
  The level of expressed mRNA in the presence of chemical substance/The level of expressed mRNA in the absence of chemical substance: 1.4
Yeast gene YDR050C
  level of expressed mRNA in the presence/in the absence of chemical substance: 1.5
Yeast gene YDR073W
  level of expressed mRNA in the presence/in the absence of chemical substance: 1.2
Yeast gene YDR123C
  level of expressed mRNA in the presence/in the absence of chemical substance: 0.9
Yeast gene YDR178W
  level of expressed mRNA in the presence/in the absence of chemical substance: 0.6
Yeast gene YDR277C
  level of expressed mRNA in the presence/in the absence of chemical substance: 1.2
Yeast gene YDR284C
  level of expressed mRNA in the presence/in the absence of chemical substance: 1.4
Yeast gene YDR345C
  level of expressed mRNA in the presence/in the absence of chemical substance: 1.1
Yeast gene YDR380W
  The level of expressed mRNA in the presence of chemical substance/The level of expressed mRNA in the absence of chemical substance: 0.5
Yeast gene YDR400W
  level of expressed mRNA in the presence/in the absence of chemical substance: 0.6
Yeast gene YDR408C
  level of expressed mRNA in the presence/in the absence of chemical substance: 0.8
Yeast gene YDR483W
  level of expressed mRNA in the presence/in the absence of chemical substance: 0.8
Yeast gene YDR497C
  The level of expressed mRNA in the presence of chemical substance/The level of expressed mRNA in the absence of chemical substance: 0.5
Yeast gene YDR502C
  The level of expressed mRNA in the presence of chemical substance/The level of expressed mRNA in the absence of chemical substance: 0.9
Yeast gene YDR516C
  The level of expressed mRNA in the presence of chemical substance/The level of expressed mRNA in the absence of chemical substance: 3.9
Yeast gene YEL063C
  level of expressed mRNA in the presence/in the absence of chemical substance: 0.7
Yeast gene YER015W
  level of expressed mRNA in the presence/in the absence of chemical substance: 1.2
Yeast gene YER026C
  The level of expressed mRNA in the presence of chemical substance/The level of expressed mRNA in the absence of chemical substance: 1.6
Yeast gene YER053C
  The level of expressed mRNA in the presence of chemical substance/The level of expressed mRNA in the absence of chemical substance: 2.8
Yeast gene YER069W
  The level of expressed mRNA in the presence of chemical substance/The level of expressed mRNA in the absence of chemical substance: 1.0
Yeast gene YER081W
  level of expressed mRNA in the presence/in the absence of chemical substance: 0.5
Yeast gene YER096W
  The level of expressed mRNA in the presence of chemical substance/The level of expressed mRNA in the absence of chemical substance: 0.9
Yeast gene YER120W
  level of expressed mRNA in the presence/in the absence of chemical substance: 0.9
Yeast gene YER178W
  The level of expressed mRNA in the presence of chemical substance/The level of expressed mRNA in the absence of chemical substance: 1.6
Yeast gene YFL011W
  level of expressed mRNA in the presence/in the absence of chemical substance: 0.8
Yeast gene YFL014W
  The level of expressed mRNA in the presence of chemical substance/The level of expressed mRNA in the absence of chemical substance: 5.5
Yeast gene YFL030W
  The level of expressed mRNA in the presence of chemical substance/The level of expressed mRNA in the absence of chemical substance: 0.6
Yeast gene YFL031W
  The level of expressed mRNA in the presence of chemical substance/The level of expressed mRNA in the absence of chemical substance: 0.9
Yeast gene YFL056C
  The level of expressed mRNA in the presence of chemical substance/The level of expressed mRNA in the absence of chemical substance: 1.4
Yeast gene YFL057C
  The level of expressed mRNA in the presence of chemical substance/The level of expressed mRNA in the absence of chemical substance: 1.8
Yeast gene YFR047C
  The level of expressed mRNA in the presence of chemical substance/The level of expressed mRNA in the absence of chemical substance: 2.0
Yeast gene YGL012W
  level of expressed mRNA in the presence/in the absence of chemical substance: 0.9
Yeast gene YGL022W
  The level of expressed mRNA in the presence of chemical substance/The level of expressed mRNA in the absence of chemical substance: 0.7
Yeast gene YGL115W
  level of expressed mRNA in the presence/in the absence of chemical substance: 1.4
Yeast gene YGL205W
  level of expressed mRNA in the presence/in the absence of chemical substance: 0.8
Yeast gene YGL209W
  The level of expressed mRNA in the presence of chemical substance/The level of expressed mRNA in the absence of chemical substance: 1.0
Yeast gene YGL248W
  The level of expressed mRNA in the presence of chemical substance/The level of expressed mRNA in the absence of chemical substance: 1.6
Yeast gene YGR037C
  The level of expressed mRNA in the presence of chemical substance/The level of expressed mRNA in the absence of chemical substance: 1.4
Yeast gene YGR055W
  The level of expressed mRNA in the presence of chemical substance/The level of expressed mRNA in the absence of chemical substance: 0.6
Yeast gene YGR096W
  level of expressed mRNA in the presence/in the absence of chemical substance: 0.9
Yeast gene YGR191W
  level of expressed mRNA in the presence/in the absence of chemical substance: 0.7
Yeast gene YGR194C
  The level of expressed mRNA in the presence of chemical substance/The level of expressed mRNA in the absence of chemical substance: 2.2
Yeast gene YGR204W
  level of expressed mRNA in the presence/in the absence of chemical substance: 0.8
Yeast gene YGR256W
  The level of expressed mRNA in the presence of chemical substance/The level of expressed mRNA in the absence of chemical substance: 1.4
Yeast gene YGR282C
  The level of expressed mRNA in the presence of chemical substance/The level of expressed mRNA in the absence of chemical substance: 1.1
Yeast gene YGR288W
  level of expressed mRNA in the presence/in the absence of chemical substance: 1.4
Yeast gene YHR025W
  level of expressed mRNA in the presence/in the absence of chemical substance: 0.8
Yeast gene YHR111W
  The level of expressed mRNA in the presence of chemical substance/The level of expressed mRNA in the absence of chemical substance: 1.6
Yeast gene YHR123W
  level of expressed mRNA in the presence/in the absence of chemical substance: 0.9
Yeast gene YHR137W
  The level of expressed mRNA in the presence of chemical substance/The level of expressed mRNA in the absence of chemical substance: 0.4
Yeast gene YHR174W
  The level of expressed mRNA in the presence of chemical substance/The level of expressed mRNA in the absence of chemical substance: 1.6
Yeast gene YHR176W
  The level of expressed mRNA in the presence of chemical substance/The level of expressed mRNA in the absence of chemical substance: 1.4
Yeast gene YHR210C
  level of expressed mRNA in the presence/in the absence of chemical substance: 1.9
Yeast gene YIL006W
  level of expressed mRNA in the presence/in the absence of chemical substance: 0.8
Yeast gene YIL045W
  The level of expressed mRNA in the presence of chemical substance/The level of expressed mRNA in the absence of chemical substance: 1.6
Yeast gene YIL107C
  The level of expressed mRNA in the presence of chemical substance/The level of expressed mRNA in the absence of chemical substance: 1.6
Yeast gene YIL154C
  The level of expressed mRNA in the presence of chemical substance/The level of expressed mRNA in the absence of chemical substance: 1.3
Yeast gene YIL155C
  The level of expressed mRNA in the presence of chemical substance/The level of expressed mRNA in the absence of chemical substance: 2.2
Yeast gene YIL167W
  The level of expressed mRNA in the presence of chemical substance/The level of expressed mRNA in the absence of chemical substance: 1.2
Yeast gene YIR034C
  The level of expressed mRNA in the presence of chemical substance/The level of expressed mRNA in the absence of chemical substance: 0.8
Yeast gene YIR036C
  The level of expressed mRNA in the presence of chemical substance/The level of expressed mRNA in the absence of chemical substance: 1.0
Yeast gene YJL031C
  The level of expressed mRNA in the presence of chemical substance/The level of expressed mRNA in the absence of chemical substance: 2.3
Yeast gene YJL068C
  The level of expressed mRNA in the presence of chemical substance/The level of expressed mRNA in the absence of chemical substance: 1.2
Yeast gene YJL099W
  The level of expressed mRNA in the presence of chemical substance/The level of expressed mRNA in the absence of chemical substance: 1.8
Yeast gene YJL121C
  level of expressed mRNA in the presence/in the absence of chemical substance: 0.7
Yeast gene YJL167W
  level of expressed mRNA in the presence/in the absence of chemical substance: 1.5
Yeast gene YJL172W
  The level of expressed mRNA in the presence of chemical substance/The level of expressed mRNA in the absence of chemical substance: 1.0
Yeast gene YJL216C
  level of expressed mRNA in the presence/in the absence of chemical substance: 1.5
Yeast gene YJL219W
  The level of expressed mRNA in the presence of chemical substance/The level of expressed mRNA in the absence of chemical substance: 0.9
Yeast gene YJR077C
  level of expressed mRNA in the presence/in the absence of chemical substance: 0.7
Yeast gene YJR137C
  The level of expressed mRNA in the presence of chemical substance/The level of expressed mRNA in the absence of chemical substance: 0.8
Yeast gene YJR143C
  level of expressed mRNA in the presence/in the absence of chemical substance: 0.5
Yeast gene YJR148W
  The level of expressed mRNA in the presence of chemical substance/The level of expressed mRNA in the absence of chemical substance: 2.1
Yeast gene YJR155W
  The level of expressed mRNA in the presence of chemical substance/The level of expressed mRNA in the absence of chemical substance: 1.7
